For 31 compounds, IC50 results are on record in patent US7208506B2, “Heteroarylethenyl derivatives, their manufacture and use as pharmaceutical agents” (Hoffmann-La Roche Inc., priority 2005, dated 2007).

Each structure is given as a SMILES string. Where a name gives a salt, the structure may show the parent alone.

The experiment deals with HCT 116 cells. Nature of the experiment: CellTiter-Glo Luminescent Cell Viability Assay in HCT 116 cells. Conditions: Homo sapiens, HCT-116, 120 h, HCT 116 human colon carcinoma cell viability, 120 h (5 days) incubation, 10 concentrations 30 μM to 0.0015 μM, triplicate. It counts as cell-based. From the text: CellTiter-Glo™ Assay in HCT 116 Cells
The CellTiter-Glo™ Luminescent Cell Viability Assay (Promega) is a homogeneous method of determining the number of viable cells in culture based on quantitation of the ATP present, which signals the presence of metabolically active cells.
HCT 116 cells (human colon carcinoma, ATCC-No. CCl1-247) were cultivated in RPMI 1640 medium with GlutaMAX™ I (Invitrogen, Cat-No. 61870-010), 2.5% Fetal Calf Serum (FCS, Sigma Cat-No. F4135 (FBS)); 100 Units/ml penicillin/100 μg/ml streptomycin (=Pen/Strep from Invitrogen Cat. No. 15140). For the assay the cells were seeded in 384 well plates, 1000 cells per well, in the same medium. The next day the test compounds were added in various concentrations ranging from 30 μM to 0.0015 μM (10 concentrations, 1:3 diluted). After 5 days the CellTiter-Glo™ assay was done according to the instructions of the manufacturer (CellTiter-Glo™ Luminescent Cell Viability Assay, from Promega). In brief: the cell-plate was equilibrated to room temperature for approximately 30 minutes and than the CellTiter-Glo™ reagent was added. The contents were carefully mixed for 15 minutes to induce cell lysis. After 45 minutes the luminescent signal was measured in Victor 2, (scanning multiwell spectrophotometer, Wallac).
Medium: RPMI 1640 with GlutaMAX™ I (Invitrogen, Cat-Nr. 61870), 5% FCS (Sigma Cat.-No. F4135), Pen/Strep (Invitrogen, Cat No. 15140).
HCT116 (ATCC-No. CCl-247): 1000 cells in 60 μl per well of 384 well plate (Greiner 781098, μClear-plate white)
After seeding incubate plates 24 h at 37° C., 5% CO2
2nd. Day: Induction (Treatment with Compounds, 10 Concentrations):
In order to achieve a final concentration of 30 μM as highest concentration 3,5 μl of 10 mM compound stock solution were added directly to 163 μl media. Then step e) of the dilution procedure described below, was followed.
In order to achieve the second highest to the lowest concentrations, a serial dilution with dilution steps of 1:3 was followed according to the procedure (a–e) as described here below: • a) for the second highest concentration add 10 μl of 10 mM stock solution of compound to 20 μl dimethylsulfoxide (DMSO) • b) dilute 8×1:3 (always 10 μl to 20 μl DMSO) in this DMSO dilution row (results in 9 wells with concentrations from 3333.3 μM to 0.51 μM) • c) dilute each concentration 1: 47.6 (3.5 μl compound dilution to 163 μl media) • e) add 10 μl of every concentration to 60 μl media in the cell plate resulting in final concentration of DMSO : 0.3% in every well and resulting in 10 final concentration of compounds ranging from 30 μM to 0.0015 μM. • Each compound is tested in triplicate. • Incubate 120 h (5 days) at 37° C., 5% CO2
Analysis: • Add 30 μl CellTiter-Glo™ Reagent per well, • shake 15 minutes at room temperature • incubate further 45 minutes at room temperature without shaking
Measurement: • Victor 2 scanning multiwell spectrophotometer (Wallac), Luminescence mode (0.5 sec/read, 477 nm) • Determine IC50 using a non-linear curve fit (XLfit software (ID Business Solution Ltd., Guilford, Surrey, UK))
(Cellular ATP, detected with luciferase, serves as a proxy for viable cell number.)
In turn, `O=C(NS(=O)(=O)/C=C/c1csc2ccccc12)c1ccc(F)cc1Br` [Example 4-19, (E)-2-Benzo[b]thiophen-3-yl-ethenesulfonic acid 2-bromo-4-fluoro-benzoylamide; sodium salt] yielded an IC50 of 0.5 to 15 µM.

In turn, `Cc1ccc(C(=O)NS(=O)(=O)/C=C/c2ccsc2)c(Br)c1` [Example 3-7, (E)-2-Thiophen-3-yl-ethenesulfonic acid 2-bromo-4-methyl-benzoylamide; sodium salt] registered a concentration for half-maximal inhibition (IC50) of 0.5 to 15 µM.

In turn, `O=C(NS(=O)(=O)/C=C/c1ccsc1)c1ccc(Br)cc1Cl` [Example 3-11, (E)-2-Thiophen-3-yl-ethenesulfonic acid 4-bromo-2-chloro-benzoylamide; sodium salt] came in with a half-inhibitory concentration (IC50) of 0.5 to 15 µM.

Compound `O=C(NS(=O)(=O)/C=C/c1ccc(Cl)nc1)c1ccc(Cl)cc1Cl` [Example 2-20, (E)-2-(6-Chloro-pyridin-3-yl)-ethenesulfonic acid 2,4-dichloro-benzoylamide; sodium salt] returned a 50% inhibitory concentration (IC50) of 0.5 to 15 µM.

On to `O=C(NS(=O)(=O)/C=C/c1ccccn1)c1ccc(F)cc1Cl` [Example 2-6, (E)-2-Pyridin-2-yl-ethenesulfonic acid 2-chloro-4-fluoro-benzoylamide; sodium salt], for which the IC50 was 0.5 to 15 µM.

As to `O=C(NS(=O)(=O)/C=C/c1nccs1)c1ccc(Cl)cc1Cl` [Example 2-22, (E)-2-Thiazol-2-yl-ethenesulfonic acid 2,4-dichloro-benzoylamide; sodium salt], the IC50 is 0.5 to 15 µM.

With `O=C(NS(=O)(=O)/C=C/c1csc2ccccc12)c1ccc(Cl)cc1Cl` [Example 2-27, (E)-2-Benzo[b]thiophen-3-yl-ethenesulfonic acid 2,4-dichloro-benzoylamide; sodium salt], the IC50 lay within 0.5 to 15 µM.

With `Cc1ccc(/C=C/S(=O)(=O)NC(=O)c2ccc(Cl)cc2Cl)s1` [Example 1-8, (E)-2-(5-Methyl-thiophen-2-yl)-ethenesulfonic acid 2,4-dichloro-benzoylamide], the IC50 is 0.5 to 15 µM.

`O=C(NS(=O)(=O)/C=C/c1cccnc1Cl)c1ccc(Cl)cc1Cl` [Example 2-21, (E)-2-(2-Chloro-pyridin-3-yl)-ethenesulfonic acid 2,4-dichloro-benzoylamide; sodium salt]: the IC50 is 0.5 to 15 µM.

In turn, `COc1cc(Cl)ccc1C(=O)NS(=O)(=O)/C=C/c1ccsc1` [Example 3-4, (E)-2-Thiophen-3-yl-ethenesulfonic acid 4-chloro-2-methoxy-benzoylamide; sodium salt] showed an IC50 of 0.5 to 15 µM.

`COc1cc(Cl)ccc1C(=O)NS(=O)(=O)/C=C/c1cccs1` [Example 3-1, (E)-2-Thiophen-2-yl-ethenesulfonic acid 4-chloro-2-methoxy-benzoylamide; sodium salt] registered an IC50 of 0.5 to 15 µM.

`Cc1cc(Br)ccc1C(=O)NS(=O)(=O)/C=C/c1ccsc1` [Example 3-5, (E)-2-Thiophen-3-yl-ethenesulfonic acid 4-bromo-2-methyl-benzoylamide; sodium salt] registered an IC50 of 0.5 to 15 µM.

The compound `O=C(NS(=O)(=O)/C=C/c1ccccn1)c1ccc(F)cc1C(F)(F)F` [Example 2-7, (E)-2-Pyridin-2-yl-ethenesulfonic acid 4-fluoro-2-trifluoromethyl-benzoylamide; sodium salt] yielded an IC50 of 0.5 to 15 µM.

In the case of `Cc1ccc(C(=O)NS(=O)(=O)/C=C/c2ccsc2)c(C)c1` [Example 3-14, (E)-2-Thiophen-3-yl-ethenesulfonic acid 2,4-dimethyl-benzoylamide; sodium salt], the IC50 lay within 0.5 to 15 µM.

`O=C(NS(=O)(=O)/C=C/c1ccsc1)c1ccc(F)cc1C(F)(F)F` [Example 1-5, (E)-2-Thiophen-3-yl-ethenesulfonic acid 4-fluoro-2-trifluoromethyl-benzoylamide; sodium salt]: the IC50 was in the range of 0.5 to 15 µM.

`Cc1cc(Br)ccc1C(=O)NS(=O)(=O)/C=C/c1ccccn1` [Example 4-4, (E)-2-Pyridin-2-yl-ethenesulfonic acid 4-bromo-2-methyl-benzoylamide; sodium salt] returned a concentration for half-maximal inhibition (IC50) of 0.5 to 15 µM.

For `Cc1cccc(/C=C/S(=O)(=O)NC(=O)c2ccc(F)cc2Cl)n1` [Example 2-25, (E)-2-(6-Methyl-pyridin-2-yl)-ethenesulfonic acid 2-chloro-4-fluoro-benzoylamide; sodium salt], the IC50 lay within 0.5 to 15 µM.

In turn, `Cc1cc(F)ccc1C(=O)NS(=O)(=O)/C=C/c1cccs1` [Example 5-1, (E)-2-Thiophen-2-yl-ethenesulfonic acid 4-fluoro-2-methyl-benzoylamide] gave an IC50 of 0.5 to 15 µM.

Consider `Cc1ccsc1/C=C/S(=O)(=O)NC(=O)c1ccc(Cl)cc1Cl` [Example 1-9, (E)-2-(3-Methyl-thiophen-2-yl)-ethenesulfonic acid 2,4-dichloro-benzoylamide], for which the IC50 fell in the range of 0.5 to 15 µM.

Consider `Cc1noc(C)c1/C=C/S(=O)(=O)NC(=O)c1ccc(Cl)cc1Cl` [Example 1-11, (E)-2-(3,5-Dimethyl-isoxazol-4-yl)-ethenesulfonic acid 2,4-dichloro-benzoylamide; sodium salt], for which the IC50 fell in the range of 0.5 to 15 µM.

`Cc1cccc(/C=C/S(=O)(=O)NC(=O)c2ccc(F)cc2Br)n1` [Example 4-15, (E)-2-(6-Methyl-pyridin-2-yl)-ethenesulfonic acid 2-bromo-4-fluoro-benzoylamide; sodium salt] yielded an IC50 of 0.5 to 15 µM.

With `O=C(NS(=O)(=O)/C=C/c1cccnc1)c1ccc(F)cc1C(F)(F)F` [Example 2-9, (E)-2-Pyridin-3-yl-ethenesulfonic acid 4-fluoro-2-trifluoromethyl-benzoylamide; sodium salt], the IC50 is 0.5 to 15 µM.

`COc1ccc(/C=C/S(=O)(=O)NC(=O)c2ccc(F)cc2Cl)cn1` [Example 2-10, (E)-2-(6-Methoxy-pyridin-3-yl)-ethenesulfonic acid 2-chloro-4-fluoro-benzoylamide; sodium salt] showed an IC50 of 0.5 to 15 µM.

Compound `O=C(NS(=O)(=O)/C=C/c1ccsc1)c1ccc(F)cc1Cl` [Example 1-3, (E)-2-Thiophen-3-yl-ethenesulfonic acid 2-chloro-4-fluoro-benzoylamide; sodium salt] yielded an IC50 of 0.5 to 15 µM.

Compound `COc1cc(Cl)ccc1C(=O)NS(=O)(=O)/C=C/c1cccnc1` [Example 4-1, (E)-2-Pyridin-3-yl-ethenesulfonic acid 4-chloro-2-methoxy-benzoylamide; sodium salt] showed an IC50 of 0.5 to 15 µM.

Consider `COc1ccc(/C=C/S(=O)(=O)NC(=O)c2ccc(Cl)cc2C)cn1` [Example 4-12, (E)-2-(6-Methoxy-pyridin-3-yl)-ethenesulfonic acid 4-chloro-2-methyl-benzoylamide; sodium salt], for which the 50% inhibitory concentration (IC50) is 0.5 to 15 µM.

Take `Cc1ccc(C(=O)NS(=O)(=O)/C=C/c2cccs2)c(C)c1` [Example 3-13, (E)-2-Thiophen-2-yl-ethenesulfonic acid 2,4-dimethyl-benzoylamide; sodium salt]: the IC50 was 0.5 to 15 µM.

Take `O=C(NS(=O)(=O)/C=C/c1ccsc1)c1ccc(F)cc1Br` [Example 3-9, (E)-2-Thiophen-3-yl-ethenesulfonic acid 2-bromo-4-fluoro-benzoylamide; sodium salt]: the IC50 fell in the range of 0.5 to 15 µM.

The compound `Cc1ccc(C(=O)NS(=O)(=O)/C=C/c2cccnc2)c(C)c1` [Example 4-16, (E)-2-Pyridin-3-yl-ethenesulfonic acid 2,4-dimethyl-benzoylamide; sodium salt] returned an IC50 of 0.5 to 15 µM.

In turn, `O=C(NS(=O)(=O)/C=C/c1cccnc1)c1ccc(C(F)(F)F)cc1C(F)(F)F` [Example 2-14, (E)-2-Pyridin-3-yl-ethenesulfonic acid 2,4-bis-trifluoromethyl-benzoylamide; sodium salt] came in with a half-inhibitory concentration (IC50) of 0.5 to 15 µM.

`O=C(NS(=O)(=O)/C=C/c1cncnc1)c1ccc(Cl)cc1Cl` [Example 2-18, (E)-2-Pyrimidin-5-yl-ethenesulfonic acid 2,4-dichloro-benzoylamide; sodium salt]: the IC50 lay within 0.5 to 15 µM.

The term IC50 denotes the concentration that gives 50% inhibition. Read a high IC50 as weaker potency.
